Activity calls are given as the source filed them.
Columns and labels:
[1] = Luminescence Cell-Based Dose Response HTS to Identify Inhibitors of 5'UTR Stem-Loop Driven Prion Protein mRNA Translation in H4 Neuroglioblastoma Cells. [Related pubchem assays: 1827 (Project Summary), 1813 (Primary HTS)]; assay type: functional
[2] = cells
[3] = inhibitors of SNCA 5'UTR-driven reporter translation, confirmation, H4 neuroglioma cells, luminescence (AID 1988); assay type: functional, cell-based
[4] = Luminescence Cell-Based Dose Retest to Confirm Inhibitors of Cancer Stem Cells. [Related pubchem assays (depositor defined):AID2717, AID2721]; assay type: functional; settings: Homo sapiens
[5] = inhibitors of firefly luciferase expression or activity, dose response, H4 neuroglioma cells, luminescence (AID 1990); assay type: functional, cell-based
[6] = HEp-2 cell cytotoxicity, dose response, cytotoxicity control for RSV inhibitor project, HTS (AID 2410); assay type: functional; settings: human respiratory syncytial virus
[7] = A cytotoxicity screen of small molecule inhibitors of the PhoP region in Salmonella typhi identified in the primary screen. [Related pubchem assays: 1850, 1864, 1985 ]; assay type: functional
[8] = NIH-3T3 fibroblast cytotoxicity, dose response, cytotoxicity control, cell-based, fluorescence, Alamar Blue, secondary assay (AID 2327); assay type: functional;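 note: NIH-3T3 mouse fibroblasts cultured with fluconazole at 8 µg/mL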
[9] = C. albicans growth with fluconazole, confirmation, fluorescence, retest (AID 2467); assay type: functional, cell-based
[10] = molecular target: T1, Short transient receptor potential channel 4 (Mus musculus, UniProt Q9QUQ5); assay: mouse TRPC4 channel activators, dose response, cell-based, HEK293 TRPC4/mu-opioid, Fluo-4 calcium (AID 434937); assay type: functional
T1 sequence (Q9QUQ5 whole entry): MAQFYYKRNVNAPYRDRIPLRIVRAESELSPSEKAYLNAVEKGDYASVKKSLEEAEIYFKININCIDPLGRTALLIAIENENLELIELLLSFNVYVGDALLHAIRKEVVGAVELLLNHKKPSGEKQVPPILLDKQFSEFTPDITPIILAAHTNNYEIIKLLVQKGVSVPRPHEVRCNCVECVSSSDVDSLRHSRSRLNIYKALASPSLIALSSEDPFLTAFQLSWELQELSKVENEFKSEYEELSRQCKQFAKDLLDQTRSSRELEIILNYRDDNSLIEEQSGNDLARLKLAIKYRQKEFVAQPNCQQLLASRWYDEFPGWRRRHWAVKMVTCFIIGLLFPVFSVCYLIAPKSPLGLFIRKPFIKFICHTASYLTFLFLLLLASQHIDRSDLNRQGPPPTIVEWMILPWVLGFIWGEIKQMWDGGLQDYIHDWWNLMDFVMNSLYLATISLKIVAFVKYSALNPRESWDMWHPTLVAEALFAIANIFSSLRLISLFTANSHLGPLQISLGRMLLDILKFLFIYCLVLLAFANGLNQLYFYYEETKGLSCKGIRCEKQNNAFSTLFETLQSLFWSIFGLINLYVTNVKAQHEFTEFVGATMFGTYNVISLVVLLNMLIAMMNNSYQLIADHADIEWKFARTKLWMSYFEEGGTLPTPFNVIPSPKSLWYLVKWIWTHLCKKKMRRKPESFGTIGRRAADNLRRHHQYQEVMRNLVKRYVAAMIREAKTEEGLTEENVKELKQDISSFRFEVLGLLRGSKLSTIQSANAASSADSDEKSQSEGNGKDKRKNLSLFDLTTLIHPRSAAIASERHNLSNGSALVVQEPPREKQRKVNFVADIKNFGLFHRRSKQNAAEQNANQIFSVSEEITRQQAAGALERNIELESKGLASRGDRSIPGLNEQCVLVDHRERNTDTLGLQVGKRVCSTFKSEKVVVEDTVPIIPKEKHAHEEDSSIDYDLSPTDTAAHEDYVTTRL

[11] = cells; remark: listed apart in the source
[12] = inhibitors of intracellular T. cruzi replication, confirmation, NIH3T3 host cells, beta-gal luminescence (AID 2044); assay type: functional, cell-based;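 note: intracellular parasites grown in NIH/3T3 mouse fibroblasts as host cells; luminescent beta-galactosidase reporter signal from transgenic T. cruzi replicating inside host cells; inhibitors lower the luminescence signal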
[13] = cytotoxicity toward NIH3T3 fibroblasts, dose response, counter-screen, cell-based, ATP luminescence, mouse fibroblasts (AID 2010); assay type: functional;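 note: cells exposed to compound for about 90 hours before reading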
[14] = molecular target: T2, Calpain-2 catalytic subunit (Sus scrofa, UniProt P43367); assay: pig calpain II inhibitor potency, dose response, biochemical, fluorogenic peptide substrate (AID 1420); assay type: functional
T2 sequence (P43367 whole entry): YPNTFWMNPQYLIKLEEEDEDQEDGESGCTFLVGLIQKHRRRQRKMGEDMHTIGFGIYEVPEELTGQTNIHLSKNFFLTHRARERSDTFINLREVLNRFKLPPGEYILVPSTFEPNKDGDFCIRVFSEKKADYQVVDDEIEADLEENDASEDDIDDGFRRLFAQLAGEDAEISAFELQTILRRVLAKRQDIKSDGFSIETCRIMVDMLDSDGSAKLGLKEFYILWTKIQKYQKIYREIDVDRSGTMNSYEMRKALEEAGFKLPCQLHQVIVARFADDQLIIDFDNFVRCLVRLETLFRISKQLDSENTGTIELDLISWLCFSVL

[15] = growth suppression of beta-catenin-knockout colon cells, dose response, cell-based, HCT116, human colon tumor (AID 1045); assay type: functional;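 note: HCT116 colon tumor cells with beta catenin knocked out; cells exposed to compound for 60 hours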
[16] = growth suppression of PTEN-null colon cells, dose response, cell-based, HCT116 PTEN knockout (AID 1047); assay type: functional;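 note: HCT116 colon tumor cells with PTEN knocked out; cells exposed to compound for 60 hours before readout; potency for loss of cell viability measured by luminescence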
[17] = molecular target: T3, Heat shock factor protein 1 (Mus musculus, UniProt P38532); assay: HSF1 potentiators in luciferase reporter cells, confirmation, cell-based, NIH3T3, luminescence, dose retest (AID 435004); assay type: functional;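 note: stress induced by proteasome inhibitor MG132 added 30 min after compound; luciferase reporter driven by HSF1 response element in NIH3T3 cells; actives raise luminescence as potentiators of the MG132 stress response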
T3 sequence (P38532 whole entry): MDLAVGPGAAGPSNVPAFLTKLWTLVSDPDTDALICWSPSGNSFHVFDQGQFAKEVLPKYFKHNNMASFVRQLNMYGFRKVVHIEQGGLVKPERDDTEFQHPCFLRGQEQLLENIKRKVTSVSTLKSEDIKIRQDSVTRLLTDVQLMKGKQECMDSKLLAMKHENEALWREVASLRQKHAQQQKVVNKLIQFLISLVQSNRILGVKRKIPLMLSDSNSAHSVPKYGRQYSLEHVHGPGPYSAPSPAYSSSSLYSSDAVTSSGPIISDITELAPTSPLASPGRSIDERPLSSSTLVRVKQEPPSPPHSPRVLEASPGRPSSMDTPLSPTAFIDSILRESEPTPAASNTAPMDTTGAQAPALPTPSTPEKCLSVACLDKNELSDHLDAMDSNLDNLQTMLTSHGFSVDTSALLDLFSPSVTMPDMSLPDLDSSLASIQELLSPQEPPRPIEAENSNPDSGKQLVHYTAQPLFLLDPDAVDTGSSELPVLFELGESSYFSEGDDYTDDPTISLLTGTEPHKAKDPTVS

[18] = molecular target: T4, Protein skinhead-1 (Caenorhabditis elegans, UniProt P34707); assay type: functional
T4 sequence (P34707 whole entry): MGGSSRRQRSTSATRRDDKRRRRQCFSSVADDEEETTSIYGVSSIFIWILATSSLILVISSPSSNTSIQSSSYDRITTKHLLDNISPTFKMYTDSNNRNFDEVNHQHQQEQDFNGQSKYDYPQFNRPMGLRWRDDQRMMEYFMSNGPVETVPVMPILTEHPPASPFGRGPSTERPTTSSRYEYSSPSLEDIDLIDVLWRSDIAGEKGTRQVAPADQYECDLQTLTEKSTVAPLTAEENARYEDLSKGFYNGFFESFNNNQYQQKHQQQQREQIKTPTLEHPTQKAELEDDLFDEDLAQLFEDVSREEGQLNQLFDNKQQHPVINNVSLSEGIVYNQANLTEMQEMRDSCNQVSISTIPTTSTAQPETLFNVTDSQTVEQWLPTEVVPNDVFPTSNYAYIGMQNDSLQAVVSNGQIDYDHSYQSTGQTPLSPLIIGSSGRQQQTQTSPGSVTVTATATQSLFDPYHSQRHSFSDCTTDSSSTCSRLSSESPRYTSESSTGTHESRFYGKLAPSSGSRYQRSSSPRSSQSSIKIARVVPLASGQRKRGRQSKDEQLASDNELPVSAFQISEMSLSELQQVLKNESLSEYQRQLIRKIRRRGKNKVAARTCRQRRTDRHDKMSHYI

[19] = molecular target: T5, Ubiquitin-conjugating enzyme E2 N (Homo sapiens, UniProt P61088); assay type: functional;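 note: Dose-response confirmation in a TR-FRET assay detecting UBC13-driven polyubiquitin chain formation, inhibition measured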
T5 sequence (P61088 whole entry): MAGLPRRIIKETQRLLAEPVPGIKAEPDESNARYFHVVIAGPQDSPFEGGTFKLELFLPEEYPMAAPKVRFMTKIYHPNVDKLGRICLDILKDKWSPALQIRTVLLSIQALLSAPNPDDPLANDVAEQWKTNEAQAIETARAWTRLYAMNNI

[20] = test system: Vero; assay: cells; assay type: functional; settings: Chlorocebus sabaeus
[21] = molecular target: Cytochrome P450 3A4 (Homo sapiens, UniProt P08684); settings: Potency;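 note: confirmatory qHTS run detecting inhibitors and substrates of CYP3A4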
[22] = HepG2 cell cytotoxicity, dose response, cytotoxicity control, plate reader, dry powder samples (AID 1159569); assay type: functional, cell-based;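 note: inhibitor potency with signal falling toward the positive control level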
[23] = P. falciparum 3D7-ScDHODH growth inhibitors, dose response, SYBR Green, dry powder samples (AID 1159570); assay type: functional, cell-based;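 note: parasite growth measured after 72 hours of compound exposure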
[24] = P. falciparum Dd2 growth inhibitors, dose response, SYBR Green, cherry-picked samples (AID 1159567); assay type: functional, cell-based
[25] = P. falciparum Dd2 growth inhibitors, dose response, SYBR Green, dry powder samples (AID 1159566); assay type: functional, cell-based;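 note: potency for growth inhibition with lower SYBR green DNA signal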
[26] = P. falciparum ATP4 D1247Y mutant growth inhibitors, dose response, NITD609-resistant line, SYBR Green, dry powder (AID 1159571); assay type: functional, cell-based;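 note: parasites synchronized at ring stage by sorbitol before testing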

Chain of Cytochrome P450 3A4 (P08684 whole entry): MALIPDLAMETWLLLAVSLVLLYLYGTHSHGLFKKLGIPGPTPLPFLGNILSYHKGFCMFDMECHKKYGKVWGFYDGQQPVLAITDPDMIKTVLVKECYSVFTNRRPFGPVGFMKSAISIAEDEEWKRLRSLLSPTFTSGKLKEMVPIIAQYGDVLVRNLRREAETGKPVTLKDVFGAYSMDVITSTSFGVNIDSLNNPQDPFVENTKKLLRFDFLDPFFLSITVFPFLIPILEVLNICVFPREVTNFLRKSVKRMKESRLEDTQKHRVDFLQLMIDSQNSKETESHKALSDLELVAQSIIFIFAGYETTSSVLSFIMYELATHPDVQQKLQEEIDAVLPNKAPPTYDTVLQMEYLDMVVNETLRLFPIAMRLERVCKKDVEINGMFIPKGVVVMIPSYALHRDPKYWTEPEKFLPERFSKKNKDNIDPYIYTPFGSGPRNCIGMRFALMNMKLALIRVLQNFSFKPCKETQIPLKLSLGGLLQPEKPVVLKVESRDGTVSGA

O=C(Nc1ccncc1)c1cc(-c2cccc(Br)c2)nc2ccccc12
EC50 [1]: > 120 µM (not active) | IC50 [2]: 17.4 µM (active) | EC50 [3]: > 120 µM (not active) | AC50 [4]: 5.05 µM (active) | EC50 [5]: > 120 µM (not active) | CC50 [6]: 22.7 µM (active)

O=C(Nc1nonc1NC(=O)c1cccs1)c1cccs1
EC50 [7]: > 50 µM (active) | EC50 [8]: > 150 µM (inactive) | EC50 [9]: 0.44 µM (active)

CC(C)Cc1ccc(CN2CCCC(NC(=O)CCn3cnnn3)C2)cc1 (stereo not drawn)
EC50 [10]: 4.22 µM (active) | EC50 [11]: 0.046 µM (active) | EC50 [12]: < 0.1 µM (active) | EC50 [13]: > 30 µM (not active)

CCn1nc(C)c(CN2CCCC(C(=O)c3cccc(OC(C)C)c3)C2)c1C (stereo not drawn)
EC50 [11]: 0.21 µM (active) | EC50 [12]: < 0.1 µM (active) | EC50 [13]: > 60 µM (not active)

COc1ccc(CNc2nc3ccccc3n2C)c(O)c1
EC50 [7]: > 50 µM (active)

CC(=O)Nc1ccc(S(=O)(=O)NCC2CCC(C(=O)NCCC3=CCCCC3)CC2)cc1 (stereo not drawn)
IC50 [14]: 9.12 µM (not active)

O=C(/C=C/c1ccccc1)Nc1nnc(SCC(=O)c2ccc3ccccc3c2)s1
EC50 [15]: 9.72 µM (active) | EC50 [16]: 9.17 µM (active)

Cc1ccc(S(=O)(=O)NCC(=O)OCN2C(=O)c3ccccc3C2=O)cc1
EC50 [7]: > 50 µM (active)

O=C(CCCN1C(=O)c2cccc3cccc(c23)C1=O)N1CCN(c2ccccn2)CC1
IC50 [14]: 2.13 µM (not active)

O=C(CSc1nc2ccccc2c2nc3ccccc3n12)NCc1ccco1
IC50 [2]: 45.6 µM (active) | EC50 [17]: > 260 µM (inactive) | IC50 [18]: > 100 µM (inactive)

COc1ccc2cc3cc(C(=O)Nc4ccccc4N4CCN(C)CC4)oc3nc2c1
IC50 [19]: > 20 µM (inactive) | EC50 [15]: 2.25 µM (active) | EC50 [12]: 1.65 µM (active) | EC50 [16]: 1.43 µM (active) | EC50 [13]: 4.47 µM (active)

CN(C)CCCN(C(=O)c1nc2ccccc2s1)c1nc2ccc(F)cc2s1
CC50 [20]: > 25 µM (active) | EC50 [11]: < 0.004 µM (active) | EC50 [12]: < 0.1 µM (active) | EC50 [13]: > 60 µM (not active)

Cc1ccccc1-n1nnnc1SCc1ncc(-c2ccccc2)o1
IC50 [14]: 5.05 µM (not active)

CCCCCCC#CC1C=CC(Oc2ccc(C=O)cc2)C(CO)O1 (stereo not drawn)
AC50 [21]: 3.98 µM (inconclusive)

Cc1c2ccccc2nc2c(F)c(NCCO)c(F)c(F)c12
IC50 [2]: 1.53 µM (active) | EC50 [8]: > 160 µM (inactive) | EC50 [9]: > 38 µM (not active) | CC50 [6]: 1.77 µM (active)

COc1ccccc1NC(=O)/C=C\C(=O)O
IC50 [14]: 17.4 µM (not active)

O=C(OCc1nnc(-c2ccccc2)o1)C12CC3CC(CC(Br)(C3)C1)C2
IC50 [14]: 3.14 µM (not active)

N#Cc1ccc(-c2ccc(OCC(=O)NCCCN3CCCC3=O)cc2)cc1
EC50 [7]: > 50 µM (active)

CCNC(=O)Oc1cccnc1O
EC50 [7]: > 50 µM (active)

COc1ccccc1CN1C[C@@H]2N[C@H](C1)[C@@H]2c1ccc(-c2ccncc2)cc1
AC50 [22]: 24.6 µM (active) | AC50 [23]: 3.59 µM (active) | AC50 [24]: 2.48 µM (active) | AC50 [25]: 2.02 µM (active) | AC50 [26]: 3.07 µM (active)

C[C@H]1CN([C@@H](C)CO)C(=O)c2c(c3ccccc3n2C)-c2ccccc2CO[C@H]1CN(C)C(=O)Nc1ccc(-c2ccccc2)cc1
AC50 [22]: > 100 µM (inactive) | AC50 [23]: 2.71 µM (active) | AC50 [24]: 2.08 µM (active) | AC50 [25]: 0.656 µM (active) | AC50 [26]: 0.634 µM (active)

C=CCSc1nc2sc3c(c2c(=O)n1-c1ccccc1)CCN(C)C3
EC50 [11]: 0.474 µM (active) | EC50 [12]: < 0.1 µM (active) | EC50 [13]: > 60 µM (not active)

Clc1ccc(C(c2ccccc2)N2CCNCC2)cc1 (stereo not drawn) [NORCHLORCYCLIZINE]
EC50 [7]: > 50 µM (active)

— ChEMBL document CHEMBL1201862, “PubChem BioAssay data set” (2004)
